Assay results from US6790619B2, “Plant phosphomevalonate kinases” (Bayer Aktiengesellschaft, priority 2000, dated 2004).
“Also recorded” adds a separate entry of the source.

Tested on: PMVK expression
Experiment: virtual Northern blot analysis of differential PMVK expression in response to chlorsulfuron
Format: in vivo, Arabidopsis thaliana cv. Columbia
Conditions: Arabidopsis plants harvested 24 hours after treatment with chlorsulfuron 10 g/ha vs control treatment
Procedure: Suppression subtractive hybridization constitutes a method of isolating differentially expressed genes. The two samples to be compared were on the one hand Arabidopsis plants which had been harvested 24 hours after treatment with a herbicide (chlorsulfuron, 10 g/ha) and, on the other hand, Arabidopsis plants which had been harvested 24 hours after a control treatment. The 370 bp PMVK fragment was isolated from the chlorsulfuron-treated plants in which PMVK transcription may have been induced by the treatment. To verify differential PMVK expression in the response to chlorsulfuron, so-called virtual Northern blot analyses were carried out. In a virtual Northern blot, cDNA is prepared from total RNA with Clontech's SMART method (see manufacturer's instructions) and amplified by PCR. A low enough number of PCR cycles is employed so that the amplification is still within the linear range of the PCR. In the present case, an optimum between 15 and 18 cycles emerged. The SMART cDNA is separated on an agarose gel by methods known to the skilled worker, transferred to a nylon membrane and hybridized with a DIG-labelled probe. This method permits study of the expression even of genes with a low expression level.

## COc1nc(C)nc(NC(=O)NS(=O)(=O)c2ccccc2Cl)n1 [chlorsulfuron]
  induction of PMVK expression: low degree of induction; also recorded: possible to induce this gene
